Laboratory results: BindingDB's records for patent US12391669 (University Of California, 2025)

Columns and labels:
[1] = molecular target: Serine/threonine-protein kinase/endoribonuclease IRE2 (Human, UniProt Q76MJ5); assay: Not found
From the text: Not found

[2] = molecular target: Serine/threonine-protein kinase/endoribonuclease IRE1 (Homo sapiens, UniProt O75460); assay: Not found
From the text: Not found

Sequence of Serine/threonine-protein kinase/endoribonuclease IRE1 (O75460 whole entry): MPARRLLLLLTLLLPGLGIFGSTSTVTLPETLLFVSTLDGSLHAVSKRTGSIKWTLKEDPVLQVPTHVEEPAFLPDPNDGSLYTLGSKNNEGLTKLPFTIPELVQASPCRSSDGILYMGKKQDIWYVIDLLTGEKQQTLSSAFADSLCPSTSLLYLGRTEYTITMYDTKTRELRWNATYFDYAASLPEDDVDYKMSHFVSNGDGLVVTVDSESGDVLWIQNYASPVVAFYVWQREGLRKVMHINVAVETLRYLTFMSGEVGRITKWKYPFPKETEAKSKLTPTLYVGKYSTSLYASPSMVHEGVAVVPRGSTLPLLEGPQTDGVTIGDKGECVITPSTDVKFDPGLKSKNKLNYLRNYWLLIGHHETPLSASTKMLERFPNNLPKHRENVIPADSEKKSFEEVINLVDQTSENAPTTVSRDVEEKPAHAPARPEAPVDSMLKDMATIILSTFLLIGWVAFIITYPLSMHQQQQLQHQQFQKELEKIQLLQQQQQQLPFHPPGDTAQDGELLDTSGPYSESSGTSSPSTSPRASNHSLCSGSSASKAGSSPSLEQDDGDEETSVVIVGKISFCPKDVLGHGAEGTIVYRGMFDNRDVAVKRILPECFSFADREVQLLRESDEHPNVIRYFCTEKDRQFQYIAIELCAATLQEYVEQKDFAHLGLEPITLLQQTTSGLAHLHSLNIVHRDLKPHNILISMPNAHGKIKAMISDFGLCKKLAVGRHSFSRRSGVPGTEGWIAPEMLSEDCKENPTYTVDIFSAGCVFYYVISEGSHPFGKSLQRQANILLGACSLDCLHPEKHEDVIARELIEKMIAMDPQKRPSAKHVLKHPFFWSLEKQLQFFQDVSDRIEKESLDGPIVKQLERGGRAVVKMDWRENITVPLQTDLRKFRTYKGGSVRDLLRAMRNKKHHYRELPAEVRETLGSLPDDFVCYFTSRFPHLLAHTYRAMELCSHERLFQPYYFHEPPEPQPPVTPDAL
Sequence of Serine/threonine-protein kinase/endoribonuclease IRE2 (Q76MJ5 whole entry): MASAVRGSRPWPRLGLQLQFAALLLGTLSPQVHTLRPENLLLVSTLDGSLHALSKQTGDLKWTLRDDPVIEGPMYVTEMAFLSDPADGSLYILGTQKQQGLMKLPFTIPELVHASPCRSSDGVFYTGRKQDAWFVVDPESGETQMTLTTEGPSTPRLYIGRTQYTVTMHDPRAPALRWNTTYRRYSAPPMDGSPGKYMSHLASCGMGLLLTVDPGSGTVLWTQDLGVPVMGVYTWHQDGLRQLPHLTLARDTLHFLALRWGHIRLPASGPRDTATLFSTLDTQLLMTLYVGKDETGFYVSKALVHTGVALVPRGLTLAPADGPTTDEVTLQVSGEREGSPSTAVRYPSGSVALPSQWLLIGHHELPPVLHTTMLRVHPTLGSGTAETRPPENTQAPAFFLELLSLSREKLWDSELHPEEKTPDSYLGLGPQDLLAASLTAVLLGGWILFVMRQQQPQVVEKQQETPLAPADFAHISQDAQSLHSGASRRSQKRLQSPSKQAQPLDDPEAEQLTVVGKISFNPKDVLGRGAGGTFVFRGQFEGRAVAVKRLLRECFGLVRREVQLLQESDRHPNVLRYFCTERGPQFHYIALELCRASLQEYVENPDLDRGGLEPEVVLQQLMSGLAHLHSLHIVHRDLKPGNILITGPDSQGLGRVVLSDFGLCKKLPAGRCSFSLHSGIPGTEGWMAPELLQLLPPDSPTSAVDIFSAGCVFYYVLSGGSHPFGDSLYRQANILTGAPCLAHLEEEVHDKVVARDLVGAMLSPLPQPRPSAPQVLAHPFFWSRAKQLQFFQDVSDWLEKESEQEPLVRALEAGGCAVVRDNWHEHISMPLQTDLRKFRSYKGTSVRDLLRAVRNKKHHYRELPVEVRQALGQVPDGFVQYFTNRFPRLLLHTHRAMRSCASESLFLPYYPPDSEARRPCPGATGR

Structure (SMILES) | IC50 [1] [µM] | IC50 [2] [µM]
Cc1ccc(C(=O)NCc2ccccc2Cl)cc1Oc1ncsc1-c1ccnc(N[C@H]2CCCNC2)n1 [US12391669, Compound 20] | > 10 | 0.052
c1cc(Cc2nc3ccccc3[nH]2)cc(Oc2ncsc2-c2ccnc(N[C@H]3CCCNC3)n2)c1 [US12391669, Compound 35] | – | 0.443
